The text below walks through data of patent US12091426B2, “Bifunctional degraders of hematopoietic progenitor kinase and therapeutic uses thereof” (Nurix Therapeutics, Inc., priority 2021, dated 2024).

For this experiment, the target named is T1, HPK1 (Homo sapiens, UniProt Q92918).
T1 construct: A HiBiT tag was introduced by CRISPR on the N terminus of HPK1 in Jurkat cells; host or cells: Jurkat cells (ATCC TIB-152), monoclonal line with CRISPR knock-in of HiBiT at the endogenous HPK1 locus
In words: HPK1 Cellular HiBit Degradation Assay. The following applies: HiBiT HPK1 Jurkat cells, 24 hrs; for DC50: concentration at which 50% of HPK1 was remaining, read-out: DC50 Category; for Dmax: Jurkat, maximum degradation vs DMSO vehicle control, read-out: Dmax Category. Type of experiment: cell-based. The procedure, abridged:
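Jurkat cells with CRISPR knock-in N-terminal HiBiT-HPK1 were treated with CTMs (11-point, 3.16-fold, 10 uM to 0.1 nM final) for 24 hrs at 37° C. HiBiT lytic luminescence, with parental Jurkat as background and DMSO as 100%, gave % HPK1 remaining; four-parameter fit yielded DC50 and Dmax (100 minus lowest % remaining).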
(HiBiT is a short tag that completes a luciferase, so light tracks the accessible tagged protein.)

T1 sequence (Q92918 whole entry): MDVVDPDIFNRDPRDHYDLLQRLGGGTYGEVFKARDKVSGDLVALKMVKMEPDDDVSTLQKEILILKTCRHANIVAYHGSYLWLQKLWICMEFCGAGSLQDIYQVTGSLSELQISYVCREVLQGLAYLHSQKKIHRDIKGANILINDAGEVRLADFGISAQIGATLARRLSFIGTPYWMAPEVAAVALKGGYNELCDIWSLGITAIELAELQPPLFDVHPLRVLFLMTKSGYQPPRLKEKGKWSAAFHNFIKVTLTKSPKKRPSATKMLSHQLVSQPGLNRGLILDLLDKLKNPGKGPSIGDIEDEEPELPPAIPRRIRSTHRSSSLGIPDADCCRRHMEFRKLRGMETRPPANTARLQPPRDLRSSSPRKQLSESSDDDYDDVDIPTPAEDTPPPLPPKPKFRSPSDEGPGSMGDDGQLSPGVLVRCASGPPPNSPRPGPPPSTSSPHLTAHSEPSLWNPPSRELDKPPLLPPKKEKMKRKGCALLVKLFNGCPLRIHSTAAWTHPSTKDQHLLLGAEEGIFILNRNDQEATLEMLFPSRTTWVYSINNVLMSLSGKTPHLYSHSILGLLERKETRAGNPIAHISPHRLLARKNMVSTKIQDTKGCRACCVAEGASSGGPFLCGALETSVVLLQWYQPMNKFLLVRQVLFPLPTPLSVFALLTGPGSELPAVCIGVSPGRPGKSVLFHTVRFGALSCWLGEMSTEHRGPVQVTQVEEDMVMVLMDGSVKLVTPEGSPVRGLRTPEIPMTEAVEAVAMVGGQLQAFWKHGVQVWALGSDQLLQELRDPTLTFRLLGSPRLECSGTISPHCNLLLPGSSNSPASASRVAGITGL

Turning to `CC(C)n1cnc2cc(-c3ccc4c(c3)N([C@H]3C[C@@H](N5CCCCC5)C3)C(=O)C43CCN(C(=O)C4(C)CCN(C(=O)C5CCN(c6ccc7c(c6)C(=O)N(C6CCC(=O)NC6=O)C7=O)CC5)CC4)CC3)nc(Nc3ccccc3F)c21` (stereo partly drawn) [Example 122, 2-(2,6-dioxopiperidin-3-yl)-5-(4-{4-[(6-{4-[(2-fluorophenyl)amino]-3-(propan-2-yl)-3H-imidazo[4,5-c]pyridin-6-yl}-2-oxo-1-[(1S,3S)-3-(piperidin-1-yl)cyclobutyl]-1,2-dihydrospiro[indole-3,4′-piperidin]-1′-yl)carbonyl]-4-methylpiperidine-1-carbonyl}piperidin-1-yl)-2,3-dihydro-1H-isoindole-1,3-dione], the DC50 was in the range of 100 to 500 nM and the Dmax is 70 to 85%.

Consider `CC(C)n1cnc2cc(-c3ccc4c(c3)N([C@H]3C[C@@H](N5CCCCC5)C3)C(=O)C43CCN(C(=O)C4(C)CCN(C(=O)C5CCN(c6ccc(N7CCC(=O)NC7=O)cn6)CC5(F)F)CC4)CC3)nc(NC3CC3)c21` (stereo partly drawn) [Example 153, 1-(6-{4-[4-({6-[4-(cyclopropylamino)-3-isopropylimidazo[4,5-c]pyridin-6-yl]-2-oxo-1-[(1S,3S)-3-(piperidin-1-yl)cyclobutyl]spiro[indole-3,4′-piperidin]-1′-yl}carbonyl)-4-methylpiperidine-1-carbonyl]-3,3-difluoropiperidin-1-yl}pyridin-3-yl)-1,3-diazinane-2,4-dione], for which the DC50 is less than 100 nM and the Dmax fell in the range of 70 to 85%.

For `CC(C)n1cnc2cc(-c3ccc4c(c3)N([C@H]3C[C@@H](N5CCCCC5)C3)C(=O)C43CCN(C(=O)C4(C)CCN(C(=O)C[C@H]5CCN(c6ccc(C7CCC(=O)NC7=O)cn6)C5)CC4)CC3)nc(NC3CC3)c21` (stereo partly drawn) [Example 154, 3-{6-[(3R)-3-{2-[4-({6-[4-(cyclopropylamino)-3-isopropylimidazo[4,5-c]pyridin-6-yl]-2-oxo-1-[(1S,3S)-3-(piperidin-1-yl)cyclobutyl]spiro[indole-3,4′-piperidin]-1′-yl}carbonyl)-4-methylpiperidin-1-yl]-2-oxoethyl}pyrrolidin-1-yl]pyridin-3-yl}piperidine-2,6-dione], the half-maximal degradation concentration (DC50) lay within 100 to 500 nM and the Dmax lay within 50 to 70%.

As for `CC(C)n1cnc2cc(-c3ccc4c(c3)N([C@H]3C[C@@H](N5CCCCC5)C3)C(=O)C43CCN(C(=O)C4(C)CCN(C(=O)C5C6CCC5CN(c5ccc(N7CCC(=O)NC7=O)cn5)C6)CC4)CC3)nc(NC3CC3)c21` (stereo partly shown) [Example 155], the DC50 is less than 100 nM and the Dmax fell in the range of 70 to 85%.

For the compound `CC(C)n1cnc2cc(-c3ccc4c(c3)N([C@H]3C[C@@H](N5CCCCC5)C3)C(=O)C43CCN(C(=O)[C@@H]4CCN(C(=O)C5CCN(c6ncc(C7CCC(=O)NC7=O)cn6)CC5)C4)CC3)nc(Nc3ccccc3F)c21` (stereo partly drawn) [Example 158, 3-(2-(4-((R)-3-(6-(4-((2-fluorophenyl)amino)-3-isopropyl-3H-imidazo[4,5-c]pyridin-6-yl)-2-oxo-1-((1S,3S)-3-(piperidin-1-yl)cyclobutyl)spiro[indoline-3,4′-piperidine]-1′-carbonyl)pyrrolidine-1-carbonyl)piperidin-1-yl)pyrimidin-5-yl)piperidine-2,6-dione], the DC50 was less than 100 nM and the greatest degradation seen (Dmax) lay within 70 to 85%.

Turning to `CC(C)n1cnc2cc(-c3ccc4c(c3)N([C@H]3C[C@@H](N5CCCCC5)C3)C(=O)C43CCN(C(=O)CC4CCN(C(=O)[C@H]5CC[C@H](Oc6ccc(C7CCC(=O)NC7=O)cn6)CC5)CC4)CC3)nc(NC3CC3)c21` (stereo partly drawn) [Example 161, 3-(6-{[(1R,4R)-4-[4-(2-{6-[4-(cyclopropylamino)-3-(propan-2-yl)-3H-imidazo[4,5-c]pyridin-6-yl]-2-oxo-1-[(1S,3S)-3-(piperidin-1-yl)cyclobutyl]-1,2-dihydrospiro[indole-3,4′-piperidin]-1′-yl}-2-oxoethyl)piperidine-1-carbonyl]cyclohexyl]oxy}pyridin-3-yl)piperidine-2,6-dione], the half-maximal degradation concentration (DC50) was less than 100 nM and the maximal degradation (Dmax) is more than 85%.

For the compound `CC(C)n1cnc2cc(-c3ccc4c(c3)N([C@H]3C[C@@H](N5CCCCC5)C3)C(=O)C43CCN(C(=O)[C@]4(C)CCN(C(=O)[C@H]5CC[C@H](Oc6ccc(C7CCC(=O)NC7=O)cn6)CC5)C4)CC3)nc(NC3CC3)c21` (stereo partly drawn) [Example 163, 3-(6-(((1R,4R)-4-((R)-3-(6-(4-(cyclopropylamino)-3-isopropyl-3H-imidazo[4,5-c]pyridin-6-yl)-2-oxo-1-((1S,3S)-3-(piperidin-1-yl)cyclobutyl)spiro[indoline-3,4′-piperidine]-1′-carbonyl)-3-methylpyrrolidine-1-carbonyl)cyclohexyl)oxy)pyridin-3-yl)piperidine-2,6-dione], the half-maximal degradation concentration (DC50) lay within 100 to 500 nM and the Dmax was more than 85%.

Consider `CC(C)n1cnc2cc(-c3ccc4c(c3)N([C@H]3C[C@@H](N5CCCCC5)C3)C(=O)C43CCN(C(=O)C4(C)CCN(C(=O)C5CCN(c6ccc(C7CCC(=O)NC7=O)cn6)CC5)CC4)CC3)nc(Oc3ccccc3F)c21` (stereo partly drawn) [Example 164, 3-(6-{4-[4-({6-[4-(2-fluorophenoxy)-3-(propan-2-yl)-3H-imidazo[4,5-c]pyridin-6-yl]-2-oxo-1-[(1S,3S)-3-(piperidin-1-yl)cyclobutyl]-1,2-dihydrospiro[indole-3,4′-piperidin]-1′-yl}carbonyl)-4-methylpiperidine-1-carbonyl]piperidin-1-yl}pyridin-3-yl)piperidine-2,6-dione], for which the 50% degradation concentration (DC50) lay in the range of 100 to 500 nM and the maximal degradation (Dmax) is more than 85%.

Take `CC(C)n1cnc2cc(-c3ccc4c(c3)N([C@H]3C[C@@H](N5CCCCC5)C3)C(=O)C43CCN(C(=O)C4(C)CCN(C(=O)C5CCN(c6ccc([C@@H]7CCC(=O)NC7=O)cn6)CC5)CC4)CC3)nc(OC3CCOCC3)c21` [Example 165, 3-(6-{4-[4-methyl-4-({6-[4-(oxan-4-yloxy)-3-(propan-2-yl)-3H-imidazo[4,5-c]pyridin-6-yl]-2-oxo-1-[(1S,3S)-3-(piperidin-1-yl)cyclobutyl]-1,2-dihydrospiro[indole-3,4′-piperidin]-1′-yl}carbonyl)piperidine-1-carbonyl]piperidin-1-yl}pyridin-3-yl)piperidine-2,6-dione]: the 50% degradation concentration (DC50) was less than 100 nM and the Dmax lay within 70 to 85%.

Turning to `CC(C)Nc1nc(-c2ccc3c(c2)N([C@H]2C[C@@H](N4CCCCC4)C2)C(=O)C32CCN(C(=O)C3(C)CCN(C(=O)C4CCN(c5ccc(C6CCC(=O)NC6=O)cn5)CC4)CC3)CC2)cc2ncn(C(C)C)c12` (stereo partly shown) [Example 166], the DC50 was less than 100 nM and the maximal degradation (Dmax) is more than 85%.

In the case of `CC(C)n1cnc2cc(-c3ccc4c(c3)N([C@H]3C[C@@H](N5CCCCC5)C3)C(=O)C43CCN(C(=O)C4CCN(C(=O)CC5CCN(c6ccc(C7CCC(=O)NC7=O)cn6)CC5)CC4)CC3)nc(Oc3ccccc3F)c21` (stereo partly drawn) [Example 167, 3-[6-(4-{2-[4-({6-[4-(2-fluorophenoxy)-3-(propan-2-yl)-3H-imidazo[4,5-c]pyridin-6-yl]-2-oxo-1-[(1S,3S)-3-(piperidin-1-yl)cyclobutyl]-1,2-dihydrospiro[indole-3,4′-piperidin]-1′-yl}carbonyl)piperidin-1-yl]-2-oxoethyl}piperidin-1-yl)pyridin-3-yl]piperidine-2,6-dione], the half-maximal degradation concentration (DC50) was less than 100 nM and the Dmax was in the range of 70 to 85%.

Usually DC50 stands for the midpoint of the concentration-degradation curve. In general, Dmax refers to the greatest extent of degradation seen.
